Measurements as given in patent US20230136297A1, “Methods Of Treating Fabry Disease In Patients Having A Mutation In The GLA Gene” (Amicus Therapeutics, Inc., priority 2020, published 2023).
Substitutions are numbered along the chain they refer to.

Legend:
Assay in all cases: α-Gal A activity in lysates of transfected HEK-293 cells ± migalastat (HEK assay)
Type in all cases: cell-based
[1] = molecular target: T1, α-Gal A mutant form G271A (Homo sapiens, UniProt P06280, G271A)
T1 construct: expressed in transfected cells; host or cells: HEK-293
T1 sequence (P06280 32-429 G271A): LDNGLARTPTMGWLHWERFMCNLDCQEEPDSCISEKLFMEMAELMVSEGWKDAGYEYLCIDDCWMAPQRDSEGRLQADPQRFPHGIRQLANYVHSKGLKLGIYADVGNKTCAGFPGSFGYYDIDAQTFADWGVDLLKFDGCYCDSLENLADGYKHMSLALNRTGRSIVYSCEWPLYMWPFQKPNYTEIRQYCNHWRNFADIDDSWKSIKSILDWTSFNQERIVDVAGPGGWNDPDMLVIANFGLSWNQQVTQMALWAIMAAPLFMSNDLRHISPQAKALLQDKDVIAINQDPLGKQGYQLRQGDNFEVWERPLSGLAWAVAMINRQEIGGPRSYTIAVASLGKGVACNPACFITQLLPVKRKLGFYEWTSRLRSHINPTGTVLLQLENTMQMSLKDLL
How it was run: (§1)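 Activity is reported as nmol of free 4-MU released per mg protein per hour (nmol/mg/hr).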

[2] = molecular target: T2, α-Gal A mutant form F169I (Homo sapiens, UniProt P06280, F169I)
T2 construct: expressed in transfected cells; host or cells: HEK-293
T2 sequence (P06280 32-429 F169I): T1 sequence (P06280 32-429 G271A) with F138I, A240G
How it was run: as §1

[3] = molecular target: T3, α-Gal A mutant form P259S (Homo sapiens, UniProt P06280, P259S)
T3 construct: expressed in transfected cells; host or cells: HEK-293
T3 sequence (P06280 32-429 P259S): T1 sequence (P06280 32-429 G271A) with P228S, A240G
How it was run: as §1

α-Gal A mutant form R38S = molecular target: T4, α-Gal A mutant form R38S (Homo sapiens, UniProt P06280, R38S)
T4 construct: expressed in transfected cells; host or cells: HEK-293
T4 sequence (P06280 32-429 R38S): T1 sequence (P06280 32-429 G271A) with R7S, A240G
How it was run: as §1

[4] = molecular target: T5, α-Gal A mutant form I303V (Homo sapiens, UniProt P06280, I303V)
T5 construct: expressed in transfected cells; host or cells: HEK-293
T5 sequence (P06280 32-429 I303V): T1 sequence (P06280 32-429 G271A) with A240G, I272V
How it was run: as §1

[5] = 10 μM migalastat minus baseline
[6] = HEK-293 lysates, 10 μM migalastat 5 days, mean ± SEM

Structure (SMILES): OC[C@H]1NC[C@H](O)[C@@H](O)[C@H]1O [migalastat, (2R,3S,4R,5S)-2-(hydroxymethyl) piperdine-3,4,5-triol]
- Absolute increase (% WT) [1, 5]: 34.4 % WT
- Relative increase ([1]; 10 μM migalastat ÷ baseline): 3.87
- 10 μM migalastat α-Gal A activity [1, 6]: 18928 ± 1069 nmol/mg/h
- 10 μM migalastat α-Gal A activity (% WT) [1, 6]: 46.4 ± 1.8 % WT
- Absolute increase (% WT) [2, 5]: 35.9 % WT
- Relative increase ([2]; 10 μM migalastat ÷ baseline): 3.44
- 10 μM migalastat α-Gal A activity [2, 6]: 15903 ± 567 nmol/mg/h
- 10 μM migalastat α-Gal A activity (% WT) [2, 6]: 51.7 ± 2.2 % WT
- Absolute increase (% WT) [3, 5]: 35.5 % WT
- Relative increase ([3]; 10 μM migalastat ÷ baseline): 1.86
- 10 μM migalastat α-Gal A activity [3, 6]: 28621 ± 3141 nmol/mg/h
- 10 μM migalastat α-Gal A activity (% WT) [3, 6]: 79.8 ± 4.8 % WT
- Absolute increase (% WT) (α-Gal A mutant form R38S; [5]): 26.6 % WT
- Relative increase (α-Gal A mutant form R38S; 10 μM migalastat ÷ baseline): 1.29
- 10 μM migalastat α-Gal A activity (α-Gal A mutant form R38S; [6]): 30928 ± 1484 nmol/mg/h
- 10 μM migalastat α-Gal A activity (% WT) (α-Gal A mutant form R38S; [6]): 100 ± 9.3 % WT
- Absolute increase (% WT) [4, 5]: 35 % WT
- Relative increase ([4]; 10 μM migalastat ÷ baseline): 1.91
- 10 μM migalastat α-Gal A activity [4, 6]: 28958 ± 3153 nmol/mg/h
- 10 μM migalastat α-Gal A activity (% WT) [4, 6]: 73.2 ± 8.8 % WT
